The numbers were not newly measured in patent publication US20050148628A1 (priority 2002, published 2005), which cites them from elsewhere.

For the data set the following is noted: in vivo.

`OC(c1cc(C(F)(F)F)nc2c(C(F)(F)F)cccc12)C1CCCCN1` (stereo not shown) [mefloquine]: the terminal elimination half-life is listed as 2-3 weeks.
